Source: PMC9464843, “Escitalopram co-prescription in anastrozole-treated breast cancer patients” (Northern Clinics of Istanbul, 2022)
Like-named read-outs stand apart in the source and are kept apart here. Each block holds one compound with its values, some of them ahead of it.

Assays:
[1] = cited from earlier work
serum estradiol = experiment: Serum estradiol levels before and after escitalopram; assay type: in vivo, human (post-menopausal breast cancer patients)
Protocol: (§1) Data on age, body mass index (BMI; kg/m^2), stage of tumor, previous anti-neoplastic treatments, and concomitant medications were collected in each patient at study enrollment. Blood samples were collected twice, before and 1-month after the onset of escitalopram treatment to analyze change in plasma anastrozole as well as estradiol levels under escitalopram treatment. Anastrozole levels were also analyzed with respect to baseline characteristics including age (≤57 years vs. >57 years), BMI (≤29.9 kg/m^2 vs. >29.9 kg/m^2), radiotherapy (left vs. right breast, the side indicates the affected organs, none), chemotherapy (applied vs. none), tamoxifen (applied vs. none), tumor stage, estradiol levels (≤10 pg/mL vs. >10 pg/mL), concomitant medications (present vs. none) and in patients discontinued versus continued 1-month escitalopram treatment.

[2] = Liver and kidney functions after escitalopram; assay type: in vivo, human (post-menopausal breast cancer patients); settings: continuers n=17; 1 month escitalopram with anastrozole
[3] = Completion / discontinuation of 1-month escitalopram treatment; assay type: in vivo, human (post-menopausal breast cancer patients); settings: n=24
Protocol: as §1
Patients were on anastrozole (1 mg/day) for at least 1 month (30±2 days), while escitalopram was initiated with a dose of 10 mg/day for the first 7 days and then the dose was gradually elevated to 20 mg/day to enable tolerance.

CYP2C19 = tested on: CYP2C19; parameters: method as in PMID 11454728; settings: cited from earlier work
CYP3A4 = tested on: CYP3A4; parameters: method as in PMID 11454728; settings: cited from earlier work
CYP2D6 [4] = tested on: CYP2D6; parameters: method as in PMID 11454728; settings: cited from earlier work
CYP2D6 [5] = settings: cited from earlier work; for Ability to inhibit the CYP2D6 enzyme: SSRI antidepressants
CYP 1A2 = tested on: CYP 1A2; parameters: method as in PMID 17375980; settings: cited from earlier work
CYP 2C9 = tested on: CYP 2C9; parameters: method as in PMID 17375980; settings: cited from earlier work
CYP 2C19 = tested on: CYP 2C19; parameters: method as in PMID 17375980; settings: cited from earlier work
CYP 3A4 = tested on: CYP 3A4; parameters: method as in PMID 17375980; settings: cited from earlier work
adrenergic receptors = tested on: adrenergic receptors; parameters: method as in PMID 16266205; settings: cited from earlier work
cholinergic receptors = tested on: cholinergic receptors; parameters: method as in PMID 16266205; settings: cited from earlier work
histaminergic receptors = tested on: histaminergic receptors; parameters: method as in PMID 16266205; settings: cited from earlier work
[6] = tested on: depression-related symptoms; parameters: method as in PMID 22142651; settings: escitalopram 5–20 mg/day; breast cancer patients; cited from earlier work
[7] = parameters: method as in earlier work; settings: escitalopram 20 mg daily for 12 weeks; hot flushes; cited from earlier work
[8] = female, human, in vivo
Protocol: (§2) A total of 24 operated post-menopausal breast cancer patients who were co-prescribed with escitalopram while taking anastrozole for at least 1 month were included in this study. The inclusion criteria were being on anastrozole treatment (1 mg/day) for at least 1 month (30±2 days), being younger than age of 75, having no implementation of radiotherapy or chemotherapy in the past 3 months before the study enrollment and having normal renal and hepatic functions.
(§3) Plasma anastrozole levels were measured twice, once before and once 1 month (30±2 days) after the onset of escitalopram by high-performance liquid chromatography (HPLC). The blood samples were centrifuged at 4500 g for 5 min within the 1 hour following the sampling and stored at -80°C until analysis. The plasma samples were extracted by using diethyl ether:dichloromethane (80:20, v:v) and high-performance liquid chromatography analyses were performed in Agilent Triple Quadrupole Mass Spectrometry system. A reverse phase C18 column (poroshell SB-C18, 2.7µm, 3.0 × 100 mm) was used within the system. The mobile phase was comprised of 5 mM ammonium acetate and acetonitrile at a ratio of 15:85 (v:v). Tolterodine was used as an internal standard. The external standard calibration interval was 0.5–50 ng/mL (r^2: 0.9930). Before analysis, 5 mL venous blood samples were collected into Na-EDTA-containing glass tubes and the blood samples were centrifuged at 4500 g for 5 min within an hour following the sampling and stored at -80°C until analysis.
(§4) The time between the last dose of anastrozole and blood sampling was recorded. As there was a variation between the last anastrozole dose and the blood sampling time, the maximum plasma concentrations (Cmax) were extrapolated by using the following pharmacokinetic formula:

[9] = breast cancer patients, cited from earlier work
clinical = settings: female, human, in vivo
Protocol: as §2, §3, §4

[10] = under anastrozole 1 mg/day, n=24

Compound: NC(=O)N1c2ccccc2C=Cc2ccccc21 [Carbamazepine]
Carbamazepine clearance, non-obese versus obese patients [1]: marginally higher
Carbamazepine clearance after major weight loss ([1]; six obese patients): significantly increased

Change in liver and kidney functions after escitalopram administration [2]: No significant change
Patients who completed the 1-month escitalopram treatment [3]: 70.8%
Patients who discontinued escitalopram within the 1st week of treatment ([3]; 10 mg/day first 7 days): 29.2%
Compound: CN(C)CCC[C@@]1(c2ccc(F)cc2)OCc2cc(C#N)ccc21 [escitalopram]
Change in estradiol levels after escitalopram administration (serum estradiol; continuers n=17, 1 month escitalopram with anastrozole): no change
Share of CYP2C19 in bio-transformation of escitalopram (CYP2C19): 37%
Share of CYP3A4 in bio-transformation of escitalopram (CYP3A4): 35%
Share of CYP2D6 in bio-transformation of escitalopram (CYP2D6 [4]): 28%
Ability to inhibit the CYP2D6 enzyme (CYP2D6 [5]): weak inhibition
Inhibition of CYP 2D6 (CYP2D6 [5]): weak or negligible inhibition
Inhibition of CYP 1A2 (CYP 1A2): weak or negligible inhibition
Inhibition of CYP 2C9 (CYP 2C9): weak or negligible inhibition
Inhibition of CYP 2C19 (CYP 2C19): weak or negligible inhibition
Inhibition of CYP 3A4 (CYP 3A4): weak or negligible inhibition
Affinity for adrenergic receptors (adrenergic receptors): low affinity
Affinity for cholinergic receptors (cholinergic receptors): low affinity
Affinity for histaminergic receptors (histaminergic receptors): low affinity
Time to amelioration of depression-related symptoms [6]: ≤ 1 week
Patients who discontinued treatment due to side effects such as nausea and somnolence [7]: 14%

Compound: Fc1ccc([C@@H]2CCNC[C@H]2COc2ccc3c(c2)OCO3)cc1 [paroxetine]
Ability to inhibit the CYP2D6 enzyme (CYP2D6 [5]): strong inhibition

Basal plasma anastrozole level [8]: 52.2 ng/mL
Plasma anastrozole, post-escitalopram [8]: 31.9 ng/mL
Plasma anastrozole, post-escitalopram ([8]; 1 month): 27.9 ng/mL
concentration at 1 month (clinical; Plasma anastrozole levels, range): 9.1 to 57 ng/mL
concentration at 1 month (clinical; Plasma anastrozole, post-escitalopram): 40.4 ng/mL
Compound: CC(C)(C#N)c1cc(Cn2cncn2)cc(C(C)(C)C#N)c1 [Anastrozole, anastrozole]
Patients with serum estradiol levels >10 pg/mL (serum estradiol; [10]): 25%
Patients with serum estradiol levels ≤10 pg/mL (serum estradiol; [10]): 75%
Anastrozole concentrations, inter-individual range ([9]; past studies): 0.0 to 98.8 ng/mL
Anastrozole plasma steady-state concentration, mean ([9]; previous studies): 37.4 ng/mL
Anastrozole plasma steady-state concentration, median ([9]; previous studies): 32.2 ng/mL

Compound: CN(C)CCCC1(c2ccc(F)cc2)OCc2cc(C#N)ccc21 (stereo not drawn) [citalopram]
Ability to inhibit the CYP2D6 enzyme (CYP2D6 [5]): weak inhibition

Compound: CNCCC(Oc1ccc(C(F)(F)F)cc1)c1ccccc1 (stereo not drawn) [fluoxetine]
Ability to inhibit the CYP2D6 enzyme (CYP2D6 [5]): strong inhibition
